Type in all cases: cell-based
Assay [1] deals with microorganism of Delvotest® MCS test medium. Nature of the assay: Production scale Delvotest MCS microbiological inhibition test, sensitivity for different antibiotics (Example 4). On the procedure:
Two series of test systems were prepared on production scale. The first series is a commercially available Delvotest® MCS and the second series is as the first with Bromocresol Purple replaced with Bromothymol Blue (160 mg·l^−1). The sensitivity for different antibiotics was determined reading the test at the moment at which an antibiotic-free control changed color. The results are in the Table below (sensitivity values in ppb).

Assay [2] has the same test system. Nature of the assay: Delvotest MCS microbial inhibition test, sensitivity for different antibiotics, plate test or tube test (Example 2). On the procedure: […] The sensitivity for different antibiotics was determined by investigating two sets of six experiments using either a plate test or a tube test system. The sensitivity was determined by reading the test at the moment at which an antibiotic-free control changed color.

For assay [3] the test system is unchanged. Nature of the assay: Delvotest MCS microbial inhibition test, sensitivity for penicillin G (Example 1). The method, then: Commercially available Delvotest® MCS, prepared according to the methods described in EP 0005891, was adapted by the replacement of the indicator Bromocresol Purple by Bromothymol Blue (160 mg·l^−1). The sensitivity for penicillin G was determined by investigating samples containing different concentrations of penicillin G in different test systems. The results are summarized in the Table below (sensitivity values in ppb).

Assay [4] shares this test system. In words: Delvotest MCS type test systems with equal indicator concentration, sensitivity for penicillin G (Example 3). On the procedure: Two test systems were prepared. The first system differs only from a commercially available Delvotest® MCS in that the concentration of Bromocresol Purple is 160 mg·l^−1, and the second series is as the first with Bromocresol Purple replaced with Bromothymol Blue (160 mg·l^−1). The sensitivity for penicillin G was determined reading the test at the moment at which an antibiotic-free control changed color. From the results as shown in the Table below (sensitivity values in ppb) it can be seen that the sensitivity of Bromothymol Blue is better then that of Bromocresol Purple at the same concentrations of indicator.

Setting [5] is: indicator Bromocresol Purple, Batch #1, three weeks after production.
[6] abbreviates: indicator Bromothymol Blue (160 mg·l^−1), Batch #1, three weeks after production.
Where [7] appears, read: indicator Bromocresol Purple (BP), experiment # 0.
[8] abbreviates: indicator Bromothymol Blue (160 mg·l^−1), plate test, experiment # 1.
Where [9] appears, read: indicator Bromothymol Blue (160 mg·l^−1), plate test, experiment # 2.
Setting [10] is: indicator Bromothymol Blue (160 mg·l^−1), plate test, experiment # 3.
The mark [11] stands for this setting: indicator Bromothymol Blue (160 mg·l^−1), plate test, experiment # 4.
[12] abbreviates: indicator Bromothymol Blue (160 mg·l^−1), plate test, experiment # 5.
Setting [13] is: indicator Bromothymol Blue (160 mg·l^−1), plate test, experiment # 6.
[14] abbreviates: indicator Bromothymol Blue (160 mg·l^−1), tube test, experiment # 7.
[15] abbreviates: indicator Bromothymol Blue (160 mg·l^−1), tube test, experiment # 8.
[16] abbreviates: indicator Bromothymol Blue (160 mg·l^−1), tube test, experiment # 9.
Where [17] appears, read: indicator Bromothymol Blue (160 mg·l^−1), tube test, experiment # 10.
Setting [18] is: indicator Bromothymol Blue (160 mg·l^−1), tube test, experiment # 11.
The mark [19] stands for this setting: indicator Bromothymol Blue (160 mg·l^−1), tube test, experiment # 12.

The results in this text go back to patent US8034580B2, “Determining presence of antibiotic in a fluid” (DSM IP Assets B.V., priority 2003, dated 2011).

For `CC1(C)S[C@@H]2[C@H](NC(=O)[C@H](N)c3ccc(O)cc3)C(=O)N2[C@H]1C(=O)O` [Amoxicillin], the sensitivity in assay [1] (setting [5]) turned out to be 8 ppb; in assay [1] (setting [6]), 4 ppb; in assay [2] (setting [7]), 8 ppb; in assay [2] (setting [8]) it was 4 ppb; in assay [2] (setting [9]), 2 ppb; in assay [2] (setting [10]) it was 2 ppb. Besides, the sensitivity is on record as 2 ppb in assay [2] (setting [11]); 2-4 ppb in assay [2] (setting [12]); 2 ppb in assay [2] (setting [13]); 4 ppb in assay [2] (setting [14]); 4 ppb in assay [2] (setting [15]); 4 ppb in assay [2] (setting [16]). Further, the sensitivity in assay [2] (setting [17]), in assay [2] (setting [18]) and in assay [2] (setting [19]) was 4 ppb each time.

For the molecule `CC1(C)S[C@@H]2[C@H](NC(=O)[C@H](N)c3ccccc3)C(=O)N2[C@H]1C(=O)O` [Ampicillin], the sensitivity in assay [1] (setting [5]) was 6 ppb; in assay [1] (setting [6]) it was 2 ppb; in assay [2] (setting [7]), 8 ppb; in assay [2] (setting [8]) it was 2 ppb; in assay [2] (setting [9]), 2 ppb; in assay [2] (setting [10]) it was 2 ppb. Further, the sensitivity in assay [2] (setting [11]), in assay [2] (setting [12]), in assay [2] (setting [13]), in assay [2] (setting [14]), in assay [2] (setting [15]) and in assay [2] (setting [16]) was 2 ppb each time. Besides, the sensitivity in assay [2] (setting [17]), in assay [2] (setting [18]) and in assay [2] (setting [19]) was 2 ppb each time.

With `CC(=O)OCC1=C(C(=O)O)N2C(=O)[C@@H](NC(=O)CSc3ccncc3)[C@H]2SC1` [Cephapirin], the sensitivity in assay [1] (setting [5]) is 8 ppb; in assay [1] (setting [6]), 4 ppb; in assay [2] (setting [7]), 8 ppb; in assay [2] (setting [8]), 2 ppb; in assay [2] (setting [9]) it was 2 ppb; in assay [2] (setting [10]), 4 ppb. In addition, the sensitivity is 6 ppb in assay [2] (setting [11]); 2 ppb in assay [2] (setting [12]); 4-6 ppb in assay [2] (setting [13]); 4 ppb in assay [2] (setting [14]); 4 ppb in assay [2] (setting [15]); 4 ppb in assay [2] (setting [16]). Besides, the sensitivity in assay [2] (setting [17]), in assay [2] (setting [18]) and in assay [2] (setting [19]) was 4 ppb in each case.

As for `Cc1onc(-c2ccccc2Cl)c1C(=O)N[C@@H]1C(=O)N2[C@@H]1SC(C)(C)[C@@H]2C(=O)O` [Cloxacillin], the sensitivity in assay [1] (setting [5]) amounted to 40 ppb; in assay [1] (setting [6]) it was 20 ppb; in assay [2] (setting [7]), 40 ppb; in assay [2] (setting [8]) it was 10 ppb; in assay [2] (setting [9]) it was 10 ppb; in assay [2] (setting [10]), 10 ppb. Also, the sensitivity in assay [2] (setting [11]) stood at 10 ppb; in assay [2] (setting [12]) it was 10 ppb; in assay [2] (setting [13]) it was 10 ppb; in assay [2] (setting [14]) it was 20 ppb; in assay [2] (setting [15]), 20 ppb; in assay [2] (setting [16]), 20 ppb. The sensitivity in assay [2] (setting [17]), in assay [2] (setting [18]) and in assay [2] (setting [19]) was 20 ppb each time.

As for `CC1(C)S[C@@H]2[C@H](NC(=O)Cc3ccccc3)C(=O)N2[C@H]1C(=O)O` [Penicillin G], the sensitivity in assay [3] (indicator Bromocresol Purple, Penicillin G concentrations of 0, 1, 2, 3 and 4 ppb investigated) is 3 ppb; in assay [3] (indicator Bromocresol Purple, Penicillin G concentrations of 0, 2, 4 and 6 ppb investigated) it was 4 ppb; in assay [3] (indicator Bromothymol Blue (160 mg·l^−1), Penicillin G concentrations of 0, 1, 2, 3 and 4 ppb investigated), 2 ppb; in assay [3] (indicator Bromothymol Blue (160 mg·l^−1), Penicillin G concentrations of 0, 2, 4 and 6 ppb investigated), 2 ppb; in assay [4] (indicator Bromocresol Purple (160 mg·l^−1)) it was 3 ppb; in assay [4] (indicator Bromothymol Blue (160 mg·l^−1)), 2 ppb. Besides, the sensitivity in assay [1] (indicator Bromocresol Purple, Batch #1, immediately after production) is 3 ppb; in assay [1] (setting [5]), 3 ppb; in assay [1] (indicator Bromothymol Blue (160 mg·l^−1), Batch #1, immediately after production), 2 ppb; in assay [1] (setting [6]), 2 ppb; in assay [2] (setting [7]), 3 ppb; in assay [2] (setting [8]), 1 ppb. In addition, the sensitivity in assay [2] (setting [9]) is given as 2 ppb; in assay [2] (setting [10]), 1 ppb; in assay [2] (setting [11]) it was 1 ppb; in assay [2] (setting [12]), 1-2 ppb; in assay [2] (setting [13]), 1 ppb; in assay [2] (setting [14]) it was 2 ppb. The sensitivity in assay [2] (setting [15]), in assay [2] (setting [16]), in assay [2] (setting [17]), in assay [2] (setting [18]) and in assay [2] (setting [19]) was 2 ppb in each case.

In the case of `Nc1ccc(S(=O)(=O)Nc2ncccn2)cc1` [Sulfadiazine], in assay [2] (comparison of the two indicators, in words), the “sensitivity with Bromothymol Blue in comparison with Bromocresol purple” value was “identical”. Further, the sensitivity in assay [2] (setting [7]), in assay [2] (setting [8]), in assay [2] (setting [9]), in assay [2] (setting [10]), in assay [2] (setting [11]) and in assay [2] (setting [12]) was 50 ppb each time. The sensitivity in assay [2] (setting [13]), in assay [2] (setting [14]), in assay [2] (setting [15]), in assay [2] (setting [16]), in assay [2] (setting [17]) and in assay [2] (setting [18]) was 50 ppb each time. The same molecule came in with a sensitivity in assay [2] (setting [19]) of 50 ppb.

As to Neomycin, the sensitivity in assay [1] (setting [5]) is 400 ppb; in assay [1] (setting [6]), 200 ppb; in assay [2] (setting [7]) it was 600 ppb; in assay [2] (setting [8]), 100 ppb; in assay [2] (setting [9]) it was 100 ppb; in assay [2] (setting [10]), 100 ppb. Also, the sensitivity in assay [2] (setting [11]) is given as 100 ppb; in assay [2] (setting [12]), 100 ppb; in assay [2] (setting [13]), 100 ppb; in assay [2] (setting [14]), 200 ppb; in assay [2] (setting [15]) it was 200 ppb; in assay [2] (setting [16]) it was 200 ppb. For the same molecule, the sensitivity in assay [2] (setting [17]), in assay [2] (setting [18]) and in assay [2] (setting [19]) was 200 ppb each time.
